Assay results as given in patent US12486274B2, “Substituted pyrazolo-pyrimidines and uses thereof” (Verge Analytics, Inc., priority 2020, dated 2025).

Target: Full length human recombinant PIKFYVE (Homo sapiens (Human), UniProt Q9Y2I7)
Experiment: Inhibition of PIKfyve (microfluidic electrophoresis kinase assay)
Type: biochemical
Conditions: 2 nM enzyme, PI3P/PS substrate, 3 h at room temperature, 12 concentrations
Procedure: Full length human recombinant PIKFYVE expressed in baculovirus expression system as N-terminal GST-fusion protein (265 kDa) was obtained from Carna Biosciences (Kobe, Japan). The kinase substrate was prepared by mixing and sonicating fluorescently-labeled phosphatidylinositol 3-phosphate (PI3P) with phospho-L-serine (PS) at a 1:10 ratio in 50 mM HEPES buffer pH7.5.
The kinase reactions were assembled in 384-well plates (Greiner) in a total volume of […] as follows. Kinase protein was pre-diluted in an assay buffer comprising 25 mM HEPES, pH 7.5, 1 mM DTT, 2.5 mM MgCl2, and 2.5 mM MnCl2, and 0.005% Triton X-100, and dispensed into a 384-well plate (10 μL per well). Test compounds were serially pre-diluted in DMSO and added to the protein samples by acoustic dispensing (Labcyte Echo). The concentration of DMSO was equalized to 1% in all samples. All test compounds were tested at 12 concentrations. Apilimod was used as a reference compound and was tested in identical manner in each assay plate. Control samples (0%-inhibition, in the absence of inhibitor, DMSO only) and 100%-inhibition (in the absence of enzyme) were assembled in replicates of four and were used to calculate %-inhibition in the presence of compounds. The reactions were initiated by addition of 10 μL of 2× PI3P/PS substrate supplemented with ATP. The final concentration of enzyme was 2 nM, the final concentration of ATP was 10 mM, and the final concentration of PI3P/PS substrate was 1 μM (PI3P). The kinase reactions were allowed to proceed for 3 h at room temperature. Following incubation, the reactions were quenched by addition of […] of termination buffer (100 mM HEPES, pH 7.5, 0.01% Triton X-100, 20 mM EDTA). Terminated plates were analyzed on a microfluidic electrophoresis instrument (Caliper LabChip® 3000, Caliper Life Sciences/Perkin Elmer). The change in the relative fluorescence intensity of the PI (3) P substrate and PI (3,5) P product peaks was measured. The activity in each test sample was determined as the product to sum ratio (PSR): P/(S+P), where P is the peak height of the product, and S is the peak height of the substrate. Percent inhibition (Pinh) was determined using the following equation: Pinh=(PSR0% inh−PSRcompound)/(PSR0% inh−PSR100% inh)*100 in which PSRcompound is the product/sum ratio in the presence of compound, PSR0% inh is the product/sum ratio in the absence of compound, and the PSR100% inh is the product/sum ratio in the absence of the enzyme.

Sequence of Full length human recombinant PIKFYVE (Q9Y2I7 whole entry): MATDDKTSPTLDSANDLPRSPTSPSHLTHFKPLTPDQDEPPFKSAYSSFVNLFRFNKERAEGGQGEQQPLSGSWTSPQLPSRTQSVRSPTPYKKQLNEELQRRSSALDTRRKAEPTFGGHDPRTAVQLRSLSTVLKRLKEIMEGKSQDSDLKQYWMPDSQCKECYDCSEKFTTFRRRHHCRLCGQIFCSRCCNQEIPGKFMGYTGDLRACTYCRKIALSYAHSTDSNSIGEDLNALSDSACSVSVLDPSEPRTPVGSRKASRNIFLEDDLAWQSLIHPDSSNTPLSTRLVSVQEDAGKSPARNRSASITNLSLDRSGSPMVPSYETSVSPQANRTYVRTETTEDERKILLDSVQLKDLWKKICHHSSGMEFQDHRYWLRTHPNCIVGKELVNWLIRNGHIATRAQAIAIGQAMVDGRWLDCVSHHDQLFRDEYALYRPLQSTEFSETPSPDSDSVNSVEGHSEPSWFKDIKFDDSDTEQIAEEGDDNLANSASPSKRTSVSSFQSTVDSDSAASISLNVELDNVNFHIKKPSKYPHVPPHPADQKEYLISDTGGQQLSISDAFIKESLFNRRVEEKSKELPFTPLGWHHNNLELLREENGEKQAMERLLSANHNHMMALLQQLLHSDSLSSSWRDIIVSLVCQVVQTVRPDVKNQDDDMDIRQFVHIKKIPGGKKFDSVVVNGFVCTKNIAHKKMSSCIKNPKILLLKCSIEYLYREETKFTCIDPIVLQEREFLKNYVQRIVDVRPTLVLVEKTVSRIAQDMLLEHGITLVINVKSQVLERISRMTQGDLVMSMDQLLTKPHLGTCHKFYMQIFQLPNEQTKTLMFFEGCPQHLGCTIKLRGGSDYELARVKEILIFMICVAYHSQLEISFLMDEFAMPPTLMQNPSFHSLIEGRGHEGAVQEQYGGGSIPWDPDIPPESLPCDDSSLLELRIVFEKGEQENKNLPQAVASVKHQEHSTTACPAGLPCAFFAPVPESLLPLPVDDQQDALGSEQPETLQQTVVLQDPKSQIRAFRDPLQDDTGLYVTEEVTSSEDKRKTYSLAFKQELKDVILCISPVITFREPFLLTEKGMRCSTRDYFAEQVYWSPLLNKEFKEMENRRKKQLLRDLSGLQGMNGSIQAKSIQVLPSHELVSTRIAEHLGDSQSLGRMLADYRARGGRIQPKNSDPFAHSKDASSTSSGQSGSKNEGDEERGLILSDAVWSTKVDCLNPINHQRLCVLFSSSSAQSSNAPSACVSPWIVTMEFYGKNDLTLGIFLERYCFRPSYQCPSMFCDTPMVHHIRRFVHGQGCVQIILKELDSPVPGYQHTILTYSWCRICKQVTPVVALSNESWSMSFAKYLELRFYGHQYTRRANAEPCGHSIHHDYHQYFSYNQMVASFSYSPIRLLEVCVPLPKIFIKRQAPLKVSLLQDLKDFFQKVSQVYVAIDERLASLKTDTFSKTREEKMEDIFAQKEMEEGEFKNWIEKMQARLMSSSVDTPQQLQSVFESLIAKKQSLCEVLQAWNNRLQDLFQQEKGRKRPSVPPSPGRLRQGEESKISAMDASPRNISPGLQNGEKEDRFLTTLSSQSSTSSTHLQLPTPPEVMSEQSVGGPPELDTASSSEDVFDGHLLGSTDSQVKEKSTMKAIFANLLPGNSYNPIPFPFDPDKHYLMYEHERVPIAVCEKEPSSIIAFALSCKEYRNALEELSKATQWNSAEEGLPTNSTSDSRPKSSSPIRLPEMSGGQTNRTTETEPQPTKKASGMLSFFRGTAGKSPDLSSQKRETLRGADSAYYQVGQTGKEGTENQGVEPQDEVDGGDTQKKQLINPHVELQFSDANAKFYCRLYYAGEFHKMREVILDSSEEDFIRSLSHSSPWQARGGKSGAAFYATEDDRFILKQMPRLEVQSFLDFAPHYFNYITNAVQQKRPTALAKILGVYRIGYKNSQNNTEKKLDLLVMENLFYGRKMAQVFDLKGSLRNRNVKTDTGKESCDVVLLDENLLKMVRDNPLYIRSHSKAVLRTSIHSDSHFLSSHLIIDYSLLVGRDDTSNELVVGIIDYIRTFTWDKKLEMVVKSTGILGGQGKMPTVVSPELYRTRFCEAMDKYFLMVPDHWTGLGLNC

Row | SMILES | IC50 [nM]
1 | c1ccc(-c2cnn(-c3cc(N4CCOCC4)n4nc(-c5cccnc5)cc4n3)c2)cc1 [Compound 79, 4-[5-(4-phenylpyrazol-1-yl)-2-(3-pyridyl)pyrazolo[1,5-a]pyrimidin-7-yl]morpholine] | 333
2 | CC(C)NC(=O)c1cc2nc(-n3cc(-c4ccccc4)cn3)cc(N3CCOCC3)n2n1 [Compound 80, N-isopropyl-7-morpholino-5-(4-phenylpyrazol-1-yl)pyrazolo[1,5-a]pyrimidine-2-carboxamide] | 4390
3 | c1ccc(-c2ccn(-c3cc(N4CCOCC4)n4nc(-c5cnccn5)cc4n3)n2)cc1 [Compound 82, 4-[5-(3-phenylpyrazol-1-yl)-2-pyrazin-2-yl-pyrazolo[1,5-a]pyrimidin-7-yl]morpholine] | 169
4 | Cc1cccc(-c2ccn(-c3cc(N4CCOCC4)n4nc(-c5cc(C)nn5CCN(C)C)cc4n3)n2)c1 [Compound 83, N,N-dimethyl-2-[3-methyl-5-[7-morpholino-5-[3-(m-tolyl)pyrazol-1-yl]pyrazolo[1,5-a]pyrimidin-2-yl]pyrazol-1-yl]ethanamine] | 22.6
5 | Cc1cccc(-c2ccn(-c3cc(N4CCOCC4)n4nc(-c5cc(C)nn5C)cc4n3)n2)c1 [Compound 84, 4-[2-(2,5-dimethylpyrazol-3-yl)-5-[3-(m-tolyl)pyrazol-1-yl]pyrazolo[1,5-a]pyrimidin-7-yl]morpholine] | 2.6
6 | Cc1cc(-c2cc3nc(-n4ccc(-c5ccccc5)n4)cc(N4CCOCC4)n3n2)n(C)n1 [Compound 85, 4-[2-(2,5-dimethylpyrazol-3-yl)-5-(3-phenylpyrazol-1-yl)pyrazolo[1,5-a]pyrimidin-7-yl]morpholine] | 215
7 | Cc1cc(-c2cc3nc(-n4ccc(-c5ccccc5)n4)cc(N4CCOCC4)n3n2)nn1C [Compound 86, 4-[2-(1,5-dimethylpyrazol-3-yl)-5-(3-phenylpyrazol-1-yl)pyrazolo[1,5-a]pyrimidin-7-yl]morpholine] | 32.2
8 | Cc1cccc(-c2ccn(-c3cc(N4CCOCC4)n4nc(-c5cc(C)n(C)n5)cc4n3)n2)c1 [Compound 87, 4-[2-(1,5-dimethylpyrazol-3-yl)-5-[3-(m-tolyl)pyrazol-1-yl]pyrazolo[1,5-a]pyrimidin-7-yl]morpholine] | 0.9
9 | c1ccc(-c2ccn(-c3cc(N4CCOCC4)n4nc(-c5cccnn5)cc4n3)n2)cc1 [Compound 88, 4-[5-(3-phenylpyrazol-1-yl)-2-pyridazin-3-yl-pyrazolo[1,5-a]pyrimidin-7-yl]morpholine] | 208
10 | COC(=O)NCc1cc2nc(-n3ccc(-c4ccccc4)n3)cc(N3CCOCC3)n2n1 [Compound 89, methyl N-[[7-morpholino-5-(3-phenylpyrazol-1-yl)pyrazolo[1,5-a]pyrimidin-2-yl]methyl]carbamate] | 1400
11 | CCC(=O)NCc1cc2nc(-n3ccc(-c4ccccc4)n3)cc(N3CCOCC3)n2n1 [Compound 90] | 2160
12 | Cc1cccc(-c2ccn(-c3cc(N4CCOCC4)n4nc(-c5cc(C)n(CCN(C)C)n5)cc4n3)n2)c1 [Compound 91, N,N-dimethyl-2-[5-methyl-3-[7-morpholino-5-[3-(m-tolyl)pyrazol-1-yl]pyrazolo[1,5-a]pyrimidin-2-yl]pyrazol-1-yl]ethanamine] | 9.4
13 | Cc1cc(-c2cc3nc(-n4ccc(-c5ccccn5)n4)cc(N4CCOCC4)n3n2)nn1CCN(C)C [Compound 92, N,N-dimethyl-2-[5-methyl-3-[7-morpholino-5-[3-(2-pyridyl)pyrazol-1-yl]pyrazolo[1,5-a]pyrimidin-2-yl]pyrazol-1-yl]ethanamine] | 5240
14 | Cc1cc(-c2cc3nc(-n4ccc(-c5ccncc5)n4)cc(N4CCOCC4)n3n2)nn1CCN(C)C [Compound 93, N,N-dimethyl-2-[5-methyl-3-[7-morpholino-5-[3-(4-pyridyl)pyrazol-1-yl]pyrazolo[1,5-a]pyrimidin-2-yl]pyrazol-1-yl]ethanamine] | > 10000
15 | Cc1cccc(-c2ccn(-c3cc(N4CCOCC4)n4nc(-c5cc(C)n(CCN(C)C)n5)cc4n3)n2)n1 [Compound 94, N,N-dimethyl-2-[5-methyl-3-[5-[3-(6-methyl-2-pyridyl)pyrazol-1-yl]-7-morpholino-pyrazolo[1,5-a]pyrimidin-2-yl]pyrazol-1-yl]ethanamine] | 4390
16 | Cc1ccnc(-c2ccn(-c3cc(N4CCOCC4)n4nc(-c5cc(C)n(CCN(C)C)n5)cc4n3)n2)c1 [Compound 95, N,N-dimethyl-2-[5-methyl-3-[5-[3-(4-methyl-2-pyridyl)pyrazol-1-yl]-7-morpholino-pyrazolo[1,5-a]pyrimidin-2-yl]pyrazol-1-yl]ethanamine] | 350
17 | Cc1cc(-c2ccn(-c3cc(N4CCOCC4)n4nc(-c5cc(C)n(CCN(C)C)n5)cc4n3)n2)ccn1 [Compound 96, N,N-dimethyl-2-[5-methyl-3-[5-[3-(2-methyl-4-pyridyl)pyrazol-1-yl]-7-morpholino-pyrazolo[1,5-a]pyrimidin-2-yl]pyrazol-1-yl]ethanamine] | > 10000
18 | Cc1cc(-c2cc3nc(-n4ccc(-c5cccc(Cl)c5)n4)cc(N4CCOCC4)n3n2)nn1CCN(C)C [Compound 97, 2-[3-[5-[3-(3-chlorophenyl)pyrazol-1-yl]-7-morpholino-pyrazolo[1,5-a]pyrimidin-2-yl]-5-methyl-pyrazol-1-yl]-N,N-dimethyl-ethanamine] | 126
19 | Cc1cc(-c2cc3nc(-n4ccc(-c5ccccc5)n4)cc(N4CCOCC4)n3n2)nn1CCN(C)C [Compound 99, N,N-dimethyl-2-[5-methyl-3-[7-morpholino-5-(3-phenylpyrazol-1-yl)pyrazolo[1,5-a]pyrimidin-2-yl]pyrazol-1-yl]ethanamine] | 127
20 | COc1cccc(-c2ccn(-c3cc(N4CCOCC4)n4nc(-c5cc(C)n(CCN(C)C)n5)cc4n3)n2)c1 [Compound 100, 2-[3-[5-[3-(3-methoxyphenyl)pyrazol-1-yl]-7-morpholino-pyrazolo[1,5-a]pyrimidin-2-yl]-5-methyl-pyrazol-1-yl]-N,N-dimethyl-ethanamine] | 8.4
21 | Cn1ccc(-c2cc3nc(-n4ccc(-c5cccc(Cl)c5)n4)cc(N4CCOCC4)n3n2)n1 [Compound 101, 4-[5-[3-(3-chlorophenyl)pyrazol-1-yl]-2-(1-methylpyrazol-3-yl)pyrazolo[1,5-a]pyrimidin-7-yl]morpholine] | 41
22 | Cc1cncc(-c2ccn(-c3cc(N4CCOCC4)n4nc(-c5cccnc5)cc4n3)n2)c1 [Compound 102, 4-[5-[3-(5-methyl-3-pyridyl)pyrazol-1-yl]-2-(3-pyridyl)pyrazolo[1,5-a]pyrimidin-7-yl]morpholine] | > 10000
23 | Cc1cc(-c2ccn(-c3cc(N4CCOCC4)n4nc(-c5cccnc5)cc4n3)n2)ccn1 [Compound 103, 4-[5-[3-(2-methyl-4-pyridyl)pyrazol-1-yl]-2-(3-pyridyl)pyrazolo[1,5-a]pyrimidin-7-yl]morpholine] | > 10000
24 | Nc1nccc(-c2cc3nc(-n4ccc(-c5ccccc5)n4)cc(N4CCOCC4)n3n2)n1 [Compound 104, 4-[7-morpholino-5-(3-phenylpyrazol-1-yl)pyrazolo[1,5-a]pyrimidin-2-yl]pyrimidin-2-amine] | 106
25 | Clc1cccc(-c2ccn(-c3cc(N4CCOCC4)n4nc(-c5cccnc5)cc4n3)n2)c1 [Compound 105, 4-[5-[3-(3-chlorophenyl)pyrazol-1-yl]-2-(3-pyridyl)pyrazolo[1,5-a]pyrimidin-7-yl]morpholine] | > 10000
26 | Brc1cccc(-c2ccn(-c3cc(N4CCOCC4)n4nc(-c5cccnc5)cc4n3)n2)c1 [Compound 106, 4-[5-[3-(3-bromophenyl)pyrazol-1-yl]-2-(3-pyridyl)pyrazolo[1,5-a]pyrimidin-7-yl]morpholine] | 19.9
27 | COc1cccc(-c2ccn(-c3cc(N4CCOCC4)n4nc(-c5cccnc5)cc4n3)n2)c1 [Compound 107, 4-[5-[3-(3-methoxyphenyl)pyrazol-1-yl]-2-(3-pyridyl)pyrazolo[1,5-a]pyrimidin-7-yl]morpholine] | 7.1
28 | Cc1cccc(-c2ccn(-c3cc(N4CCOCC4)n4nc(-c5cccnc5)cc4n3)n2)n1 [Compound 108, 4-[5-[3-(6-methyl-2-pyridyl)pyrazol-1-yl]-2-(3-pyridyl)pyrazolo[1,5-a]pyrimidin-7-yl]morpholine] | 1350
29 | Nc1cccc(-c2cc3nc(-n4ccc(-c5ccccc5)n4)cc(N4CCOCC4)n3n2)n1 [Compound 109, 6-[7-morpholino-5-(3-phenylpyrazol-1-yl)pyrazolo[1,5-a]pyrimidin-2-yl]pyridin-2-amine] | 278
